*1 amine or outer side, *2 acyl side, *3 side chain or, on linkers, in order; H or OH if unused. Where a SMILES comes first, the peptide text is derived from it. Side-chain parts run from the residue outwards. The star is where a group is joined. C18 diacid = O=C(O)CCCCCCCCCCCCCCCCC(=O)*; γGlu = O=C(O)[C@H](CCC(=O)[*:2])N[*:1]; Isovaleryl = CC(C)CC(=O)*; Ahx = NCCCCCC(=O)O
What was measured:
[1] = biological target: T1, Human Neuropeptide Y2 Receptor (Homo sapiens, UniProt P49146); test: Radioligand binding competition assay (RLB); conditions: Table 3, 125I-PYY(1-36) competition; read-out: Ki
T1 construct: purchased CHEMICON HTS066M
T1 sequence (P49146 1-381): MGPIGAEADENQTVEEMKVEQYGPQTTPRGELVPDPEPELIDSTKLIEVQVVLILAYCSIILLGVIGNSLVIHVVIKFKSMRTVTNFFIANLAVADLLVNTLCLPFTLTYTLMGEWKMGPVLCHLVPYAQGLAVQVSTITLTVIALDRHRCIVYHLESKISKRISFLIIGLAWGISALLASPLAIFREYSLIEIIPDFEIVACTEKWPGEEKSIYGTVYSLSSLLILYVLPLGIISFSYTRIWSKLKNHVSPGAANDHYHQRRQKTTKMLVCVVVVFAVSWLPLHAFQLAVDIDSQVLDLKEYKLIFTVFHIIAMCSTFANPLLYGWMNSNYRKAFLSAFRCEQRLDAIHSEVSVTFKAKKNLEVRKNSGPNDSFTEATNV
In short: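 Competition binding used membranes expressing the receptor (0.5 μg protein/well) in 50 mM HEPES, 5 mM MgCl2, 1 mM CaCl2, pH 7.4 with 0.2% ovalbumin, incubated 2 h at room temperature with shaking. Bound radioligand was collected by filtration onto PEI-soaked GF/C filters and counted; IC50 from nonlinear sigmoidal fits.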

Solubility determination = conditions: for Sol6: pH 6; for Sol7: pH 7
In short: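 First, TFA-salt peptide was added to 0.1 M sodium diphosphate (pH 6.4 or 7.0) to 10 mg/ml and shaken 2 h at room temperature. Next, insoluble material was filtered off. Finally, filtrate and control, each 1 mg/ml in 50% acetonitrile, were compared by reversed-phase chromatography.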

| Compound | Ki [1] | Sol6 (Solubility determination) | Sol7 (Solubility determination) |
| --- | --- | --- | --- |
| CC(C)CC(=O)N[C@@H](C)C(=O)N1CCC[C@H]1C(=O)N[C@@H](C)C(=O)N[C@@H](CCCCNC(=O)CCCCCNC(=O)CC[C@H](NC(=O)CCCCCCCCCCCCCCCCC(=O)O)C(=O)O)C(=O)N1CCC[C@H]1C(=O)N[C@@H](CCC(=O)O)C(=O)N[C@@H](CCC(=O)O)C(=O)N[C@@H](C)C(=O)N[C@@H](C)C(=O)N[C@@H](CO)C(=O)N1CCC[C@H]1C(=O)N[C@@H](CCC(=O)O)C(=O)N[C@@H](CCC(=O)O)C(=O)N[C@@H](CC(C)C)C(=O)N[C@@H](CCC(N)=O)C(=O)N[C@@H](CCCNC(=N)N)C(=O)N[C@@H](Cc1ccc(O)cc1)C(=O)N[C@@H](Cc1ccc(O)cc1)C(=O)N[C@H](C(=O)N[C@@H](C)C(=O)N[C@@H](CC(C)C)C(=O)N[C@@H](CCCNC(=N)N)C(=O)N[C@@H](Cc1c[nH]cn1)C(=O)N[C@@H](Cc1ccc(O)cc1)C(=O)N[C@@H](Cc1ccc(O)cc1)C(=O)N[C@@H](CC(N)=O)C(=O)N[C@@H](Cc1c[nH]c2ccccc12)C(=O)N[C@@H](CC(C)C)C(=O)N[C@H](C(=O)N[C@@H](CCCNC(=N)N)C(=O)N[C@@H](CCC(N)=O)C(=O)N[C@@H](CCCNC(=N)N)C(=O)N[C@@H](Cc1ccc(O)cc1)C(N)=O)[C@@H](C)O)C(C)C [Compound 157, N{alpha-4}-(3-methylbutanoyl)-N{epsilon-7}-(6-[(4S)-4-carboxy-4-(17-carboxyheptadecanamido)butanamido]hexanoyl)-[4A,6A,7K,9E,11A,18Q,22V,23A,28Y,30W,31L]-hPYY(4-36)] | 1.68 nM | 0.0 mg/mL | 0.3 mg/mL |
| CC[C@H](C)[C@H](NC(=O)[C@H](CCC(=O)O)NC(=O)[C@H](CCC(=O)O)NC(=O)[C@@H]1CCCN1C(=O)[C@H](CO)NC(=O)[C@H](C)NC(=O)[C@H](C)NC(=O)[C@H](CCC(=O)O)NC(=O)[C@@H]1CCCN1C(=O)[C@@H]1CCCN1C(=O)[C@H](CCCCNC(=O)CCCCCNC(=O)CC[C@H](NC(=O)CCCCCCCCCCCCCCCCC(=O)O)C(=O)O)NC(=O)[C@H](CCC(=O)O)NC(=O)[C@@H]1CCCN1C(=O)[C@H](C)NC(=O)CC(C)C)C(=O)N[C@@H](CCC(N)=O)C(=O)N[C@@H](CCCNC(=N)N)C(=O)N[C@@H](Cc1ccc(O)cc1)C(=O)N[C@@H](Cc1ccc(O)cc1)C(=O)N[C@H](C(=O)N[C@@H](C)C(=O)N[C@@H](CC(C)C)C(=O)N[C@@H](CCCNC(=N)N)C(=O)N[C@@H](Cc1c[nH]cn1)C(=O)N[C@@H](Cc1ccc(O)cc1)C(=O)N[C@@H](Cc1ccc(O)cc1)C(=O)N[C@@H](CC(N)=O)C(=O)N[C@@H](Cc1c[nH]c2ccccc12)C(=O)N[C@@H](CC(C)C)C(=O)N[C@H](C(=O)N[C@@H](CCCNC(=N)N)C(=O)N[C@@H](CCC(N)=O)C(=O)N[C@@H](CCCNC(=N)N)C(=O)N[C@@H](Cc1ccc(O)cc1)C(N)=O)[C@@H](C)O)C(C)C [Compound 158, N{alpha-4}-(3-methylbutanoyl)-N{epsilon-7}-(6-[(4S)-4-carboxy-4-(17-carboxyheptadecanamido)butanamido]hexanoyl)-[4A,7K,9P,11A,17I,18Q,22V,23A,28Y,30W,31L]-hPYY(4-36)] | 0.58 nM | 0.0 mg/mL | 0.4 mg/mL |
| CC[C@H](C)[C@H](NC(=O)[C@H](Cc1ccc(O)cc1)NC(=O)[C@H](Cc1ccc(O)cc1)NC(=O)[C@H](CCCNC(=N)N)NC(=O)[C@H](CCC(N)=O)NC(=O)[C@H](CC(C)C)NC(=O)[C@H](CCC(=O)O)NC(=O)[C@H](CCC(=O)O)NC(=O)[C@@H]1CCCN1C(=O)[C@H](CCC(=O)O)NC(=O)[C@H](C)NC(=O)[C@H](CC(=O)O)NC(=O)[C@H](C)NC(=O)[C@H](CCC(=O)O)NC(=O)[C@@H]1CCCN1C(=O)[C@H](CCCCNC(=O)CCCCCNC(=O)CC[C@H](NC(=O)CCCCCCCCCCCCCCCCC(=O)O)C(=O)O)NC(=O)[C@H](CCC(=O)O)NC(=O)[C@@H]1CCCN1C(=O)[C@H](C)NC(=O)CC(C)C)C(=O)N[C@@H](CO)C(=O)N[C@@H](CC(C)C)C(=O)N[C@@H](CCCNC(=N)N)C(=O)N[C@@H](Cc1c[nH]cn1)C(=O)N[C@@H](Cc1ccc(O)cc1)C(=O)N[C@@H](Cc1ccc(O)cc1)C(=O)N[C@@H](CC(N)=O)C(=O)N[C@@H](Cc1c[nH]c2ccccc12)C(=O)N[C@@H](CC(C)C)C(=O)N[C@H](C(=O)N[C@@H](CCCNC(=N)N)C(=O)N[C@@H](CCC(N)=O)C(=O)N[C@@H](CCCNC(=N)N)C(=O)N[C@@H](Cc1ccc(O)cc1)C(N)=O)[C@@H](C)O [Compound 159, N{alpha-4}-(3-methylbutanoyl)-N{epsilon-7}-(6-[(4S)-4-carboxy-4-(17-carboxyheptadecanamido)butanamido]hexanoyl)-[4A,7K,9E,10A,13E,18Q,22I,28Y,30W,31L]-hPYY(4-36)] (Isovaleryl-APEK([Ahx-γGlu-C18 diacid])PEADAEPEELQRYYISLRHYYNWLTRQRY-NH2) | 2.75 nM | >10.0 mg/mL | 10.0 mg/mL |
| CC(C)CC(=O)N[C@@H](C)C(=O)N1CCC[C@H]1C(=O)N[C@@H](C)C(=O)N[C@@H](CCCCNC(=O)CCCCCNC(=O)CC[C@H](NC(=O)CCCCCCCCCCCCCCCCC(=O)O)C(=O)O)C(=O)N1CCC[C@H]1C(=O)N[C@@H](CCC(=O)O)C(=O)N[C@@H](CCC(=O)O)C(=O)N[C@@H](C)C(=O)N[C@@H](C)C(=O)N[C@@H](CCC(=O)O)C(=O)N1CCC[C@H]1C(=O)N[C@@H](CCC(=O)O)C(=O)N[C@@H](CCC(=O)O)C(=O)N[C@@H](CC(C)C)C(=O)N[C@@H](CCC(N)=O)C(=O)N[C@@H](CCCNC(=N)N)C(=O)N[C@@H](Cc1ccc(O)cc1)C(=O)N[C@@H](Cc1ccc(O)cc1)C(=O)N[C@H](C(=O)N[C@@H](C)C(=O)N[C@@H](CC(C)C)C(=O)N[C@@H](CCCNC(=N)N)C(=O)N[C@@H](Cc1c[nH]cn1)C(=O)N[C@@H](Cc1ccc(O)cc1)C(=O)N[C@@H](Cc1ccc(O)cc1)C(=O)N[C@@H](CC(N)=O)C(=O)N[C@@H](Cc1c[nH]c2ccccc12)C(=O)N[C@@H](CC(C)C)C(=O)N[C@H](C(=O)N[C@@H](CCCNC(=N)N)C(=O)N[C@@H](CCC(N)=O)C(=O)N[C@@H](CCCNC(=N)N)C(=O)N[C@@H](Cc1ccc(O)cc1)C(N)=O)[C@@H](C)O)C(C)C [Compound 161, N{alpha-4}-(3-methylbutanoyl)-N{epsilon-7}-(6-[(4S)-4-carboxy-4-(17-carboxyheptadecanamido)butanamido]hexanoyl)-[4A,6A,7K,9E,11A,13E,18Q,22V,23A,28Y,30W,31L]-hPYY(4-36)] | 4 nM | 0.2 mg/mL | >10.0 mg/mL |
| CC(C)CC(=O)N[C@@H](C)C(=O)N1CCC[C@H]1C(=O)N[C@@H](CCC(=O)O)C(=O)N[C@@H](CCCCNC(=O)CCCCCNC(=O)CC[C@H](NC(=O)CCCCCCCCCCCCCCCCC(=O)O)C(=O)O)C(=O)N1CCC[C@H]1C(=O)N[C@@H](CCC(=O)O)C(=O)N[C@@H](CCC(=O)O)C(=O)N[C@@H](CC(=O)O)C(=O)N[C@@H](C)C(=O)N[C@H](C(=O)N1CCC[C@H]1C(=O)N[C@@H](CCC(=O)O)C(=O)N[C@@H](CCC(=O)O)C(=O)N[C@@H](CCC(=O)O)C(=O)N[C@@H](CCC(N)=O)C(=O)N[C@@H](CCCNC(=N)N)C(=O)N[C@@H](Cc1ccc(O)cc1)C(=O)N[C@@H](Cc1ccc(O)cc1)C(=O)N[C@H](C(=O)N[C@@H](CO)C(=O)N[C@@H](CC(C)C)C(=O)N[C@@H](CCCNC(=N)N)C(=O)N[C@@H](Cc1c[nH]cn1)C(=O)N[C@@H](Cc1ccc(O)cc1)C(=O)N[C@@H](Cc1ccc(O)cc1)C(=O)N[C@@H](CC(N)=O)C(=O)N[C@@H](Cc1c[nH]c2ccccc12)C(=O)N[C@@H](CC(C)C)C(=O)N[C@H](C(=O)N[C@@H](CCCNC(=N)N)C(=O)N[C@@H](CCC(N)=O)C(=O)N[C@@H](CCCNC(=N)N)C(=O)N[C@@H](Cc1ccc(O)cc1)C(N)=O)[C@@H](C)O)C(C)C)[C@@H](C)O [Compound 162, N{alpha-4}-(3-methylbutanoyl)-N{epsilon-7}-(6-[(4S)-4-carboxy-4-(17-carboxyheptadecanamido)butanamido]hexanoyl)-[4A,7K,9E,13T,17E,18Q,22V,28Y,30W,31L]-hPYY(4-36)] | 14.9 nM | 9.0 mg/mL | 9.3 mg/mL |
| CC[C@H](C)[C@H](NC(=O)[C@H](CCC(=O)O)NC(=O)[C@H](CCC(=O)O)NC(=O)[C@@H]1CCCN1C(=O)[C@@H](NC(=O)[C@H](C)NC(=O)[C@H](CC(=O)O)NC(=O)[C@H](CCC(=O)O)NC(=O)[C@H](CCC(=O)O)NC(=O)[C@@H]1CCCN1C(=O)[C@H](CCCCNC(=O)CCCCCNC(=O)CC[C@H](NC(=O)CCCCCCCCCCCCCCCCC(=O)O)C(=O)O)NC(=O)[C@H](CCC(=O)O)NC(=O)[C@@H]1CCCN1C(=O)[C@H](C)NC(=O)CC(C)C)[C@@H](C)O)C(=O)N[C@@H](CCC(N)=O)C(=O)N[C@@H](CCCNC(=N)N)C(=O)N[C@@H](Cc1ccc(O)cc1)C(=O)N[C@@H](Cc1ccc(O)cc1)C(=O)N[C@@H](CCC(N)=O)C(=O)N[C@@H](CO)C(=O)N[C@@H](CC(C)C)C(=O)N[C@@H](CCCNC(=N)N)C(=O)N[C@@H](Cc1c[nH]cn1)C(=O)N[C@@H](Cc1ccc(O)cc1)C(=O)N[C@@H](Cc1ccc(O)cc1)C(=O)N[C@@H](CC(N)=O)C(=O)N[C@@H](Cc1c[nH]c2ccccc12)C(=O)N[C@@H](CC(C)C)C(=O)N[C@H](C(=O)N[C@@H](CCCNC(=N)N)C(=O)N[C@@H](CCC(N)=O)C(=O)N[C@@H](CCCNC(=N)N)C(=O)N[C@@H](Cc1ccc(O)cc1)C(N)=O)[C@@H](C)O [Compound 164, N{alpha-4}-(3-methylbutanoyl)-N{epsilon-7}-(6-[(4S)-4-carboxy-4-(17-carboxyheptadecanamido)butanamido]hexanoyl)-[4A,7K,9E,13T,17I,18Q,22Q,28Y,30W,31L]-hPYY(4-36)] | 2.8 nM | 9.3 mg/mL | 9.2 mg/mL |
